# How the values were obtained:
# Chilo suppressalis = assay: Rice field trials, control of Chilo suppressalis (Example 1, Trials 1-2, Spain); format: in vivo; settings: applications AB
# Experimental: (§1) All applications were made with an EC formulation containing 650 g/L of pelargonic acid (e.g., 685 g/L of 95% purity pelargonic acid), an anionic emulsifier and a branched fatty acid ester solvent.
# Trials 1˜4 assessing the use of pelargonic acid for controlling Chilo suppressalis in rice were conducted in Spain and Thailand.
# Application A was made to the crops at the beginning of infestations; for these trials, Stage BBCH 59; Application B was made 14 days after Application A.
# (§2) Trial 1 was conducted in Spain using a water volume of 300 L/ha of water per application unless otherwise indicated. Pest Incidence/Number of Insects (PESINC) and Pest Severity (PESSEV) as a Percent of Untreated Check (% UNCK) as well as Phytotoxicity were assessed at various treatment evaluation intervals.
# as §2, with “2” for “1”
# Diabrotica speciosa = assay: Dry bean field trials, Diabrotica speciosa damage and yield (Example 4); format: in vivo; settings: Trial 1, dry bean, 28 DAB, 150 L water/ha, two applications 7 d apart, Lambda-cyhalothrin 100 at 0.15 L/ha
# Source text: as §1
# Diabrotica speciosa is a major pest in rice.
# Dry Beans—Diabrotica speciosa
# [1] = Trial 1, 14 DAB, water volume 150 L/ha
# [2] = Trial 1, 14 DAB, water volume 300 L/ha, rate in treatment name
# [3] = Trial 1, 27 DAB, water volume 150 L/ha
# [4] = Trial 1, 27 DAB, water volume 300 L/ha, rate in treatment name, listed as PA 585 g/ha
# [5] = Trial 1, 27 DAB, water volume 300 L/ha, rate in treatment name, listed as PA 975 g/ha
# [6] = Trial 1, 27 DAB, water volume 300 L/ha, rate in treatment name, listed as PA 1300 g/ha
# [7] = Trial 1, 27 DAB, water volume 300 L/ha, rate in treatment name, listed as PA 2600 g/ha
# [8] = Trial 1, 40 DAB, water volume 150 L/ha
# [9] = Trial 1, 40 DAB, water volume 300 L/ha, rate in treatment name, listed as PA 585 g/ha
# [10] = Trial 1, 40 DAB, water volume 300 L/ha, rate in treatment name, listed as PA 975 g/ha
# [11] = Trial 1, 40 DAB, water volume 300 L/ha, rate in treatment name, listed as PA 1300 g/ha
# [12] = Trial 1, 40 DAB, water volume 300 L/ha, rate in treatment name, listed as PA 2600 g/ha
smiles,measurement,setting,value
"CCCCCCCCC(=O)O [PA 650 g/ha, pelargonic acid]",PESINC (Pest Incidence/Number of Insects) % UNCK (% efficacy),Chilo suppressalis; [1],75 % UNCK
same,PESSEV (Pest Severity) % UNCK,Chilo suppressalis; [1],75 % UNCK
same,PESINC (Pest Incidence/Number of Insects) % UNCK (% efficacy),Chilo suppressalis; [2],75 % UNCK
same,PESSEV (Pest Severity) % UNCK,Chilo suppressalis; [2],75 % UNCK
same,PESINC (Pest Incidence/Number of Insects) % UNCK (% efficacy),Chilo suppressalis; [3],42.08 % UNCK
same,PESSEV (Pest Severity) % UNCK,Chilo suppressalis; [3],42.08 % UNCK
same,PESINC (Pest Incidence/Number of Insects) % UNCK (% efficacy),Chilo suppressalis; [4],30.83 % UNCK
same,PESSEV (Pest Severity) % UNCK,Chilo suppressalis; [4],30.83 % UNCK
same,PESINC (Pest Incidence/Number of Insects) % UNCK (% efficacy),Chilo suppressalis; [5],42.08 % UNCK
same,PESSEV (Pest Severity) % UNCK,Chilo suppressalis; [5],42.08 % UNCK
same,PESINC (Pest Incidence/Number of Insects) % UNCK (% efficacy),Chilo suppressalis; [6],46.25 % UNCK
same,PESSEV (Pest Severity) % UNCK,Chilo suppressalis; [6],50 % UNCK
same,PESINC (Pest Incidence/Number of Insects) % UNCK (% efficacy),Chilo suppressalis; [7],59.58 % UNCK
same,PESSEV (Pest Severity) % UNCK,Chilo suppressalis; [7],59.58 % UNCK
same,PESINC (Pest Incidence/Number of Insects) % UNCK (% efficacy),Chilo suppressalis; [8],43.75 % UNCK
same,PESSEV (Pest Severity) % UNCK,Chilo suppressalis; [8],43.75 % UNCK
same,PESINC (Pest Incidence/Number of Insects) % UNCK (% efficacy),Chilo suppressalis; [9],27.71 % UNCK
same,PESSEV (Pest Severity) % UNCK,Chilo suppressalis; [9],29.21 % UNCK
same,PESINC (Pest Incidence/Number of Insects) % UNCK (% efficacy),Chilo suppressalis; [10],46.88 % UNCK
same,PESSEV (Pest Severity) % UNCK,Chilo suppressalis; [10],46.88 % UNCK
same,PESINC (Pest Incidence/Number of Insects) % UNCK (% efficacy),Chilo suppressalis; [11],47.5 % UNCK
same,PESSEV (Pest Severity) % UNCK,Chilo suppressalis; [11],47.5 % UNCK
same,PESINC (Pest Incidence/Number of Insects) % UNCK (% efficacy),Chilo suppressalis; [12],63.13 % UNCK
same,PESSEV (Pest Severity) % UNCK,Chilo suppressalis; [12],63.13 % UNCK
same,PESSEV (Pest Severity) % UNCK,"Chilo suppressalis; Trial 2, 14 DAB, water volume 150 L/ha",100 % UNCK
same,PESSEV (Pest Severity) % UNCK,"Chilo suppressalis; Trial 2, 14 DAB, water volume 300 L/ha, rate in treatment name",100 % UNCK
same,PESINC (Pest Incidence/Number of Insects) % UNCK,"Chilo suppressalis; Trial 2, 15 DAB, water volume 150 L/ha",100 % UNCK
same,PESINC (Pest Incidence/Number of Insects) % UNCK,"Chilo suppressalis; Trial 2, 15 DAB, water volume 300 L/ha, rate in treatment name",100 % UNCK
same,PESSEV (Pest Severity) % UNCK,"Chilo suppressalis; Trial 2, 27 DAB, water volume 150 L/ha",45.31 % UNCK
same,PESSEV (Pest Severity) % UNCK,"Chilo suppressalis; Trial 2, 27 DAB, water volume 300 L/ha, rate in treatment name, listed as PA 585 g/ha",55.21 % UNCK
same,PESSEV (Pest Severity) % UNCK,"Chilo suppressalis; Trial 2, 27 DAB, water volume 300 L/ha, rate in treatment name, listed as PA 975 g/ha",57.29 % UNCK
same,PESSEV (Pest Severity) % UNCK,"Chilo suppressalis; Trial 2, 27 DAB, water volume 300 L/ha, rate in treatment name, listed as PA 1300 g/ha",69.27 % UNCK
same,PESSEV (Pest Severity) % UNCK,"Chilo suppressalis; Trial 2, 27 DAB, water volume 300 L/ha, rate in treatment name, listed as PA 2600 g/ha",77.6 % UNCK
same,PESINC (Pest Incidence/Number of Insects) % UNCK,"Chilo suppressalis; Trial 2, 28 DAB, water volume 150 L/ha",40 % UNCK
same,PESINC (Pest Incidence/Number of Insects) % UNCK,"Chilo suppressalis; Trial 2, 28 DAB, water volume 300 L/ha, rate in treatment name, listed as PA 585 g/ha",45 % UNCK
same,PESINC (Pest Incidence/Number of Insects) % UNCK,"Chilo suppressalis; Trial 2, 28 DAB, water volume 300 L/ha, rate in treatment name, listed as PA 975 g/ha",45 % UNCK
same,PESINC (Pest Incidence/Number of Insects) % UNCK,"Chilo suppressalis; Trial 2, 28 DAB, water volume 300 L/ha, rate in treatment name, listed as PA 1300 g/ha",57.5 % UNCK
same,PESINC (Pest Incidence/Number of Insects) % UNCK,"Chilo suppressalis; Trial 2, 28 DAB, water volume 300 L/ha, rate in treatment name, listed as PA 2600 g/ha",74.17 % UNCK
same,PESSEV (Pest Severity) % UNCK,"Chilo suppressalis; Trial 2, 40 DAB, water volume 150 L/ha",57.29 % UNCK
same,PESSEV (Pest Severity) % UNCK,"Chilo suppressalis; Trial 2, 40 DAB, water volume 300 L/ha, rate in treatment name, listed as PA 585 g/ha",62.5 % UNCK
same,PESSEV (Pest Severity) % UNCK,"Chilo suppressalis; Trial 2, 40 DAB, water volume 300 L/ha, rate in treatment name, listed as PA 975 g/ha",68.75 % UNCK
same,PESSEV (Pest Severity) % UNCK,"Chilo suppressalis; Trial 2, 40 DAB, water volume 300 L/ha, rate in treatment name, listed as PA 1300 g/ha",68.75 % UNCK
same,PESSEV (Pest Severity) % UNCK,"Chilo suppressalis; Trial 2, 40 DAB, water volume 300 L/ha, rate in treatment name, listed as PA 2600 g/ha",79.38 % UNCK
same,PESINC (Pest Incidence/Number of Insects) % UNCK,"Chilo suppressalis; Trial 2, 41 DAB, water volume 150 L/ha",39.29 % UNCK
same,PESINC (Pest Incidence/Number of Insects) % UNCK,"Chilo suppressalis; Trial 2, 41 DAB, water volume 300 L/ha, rate in treatment name, listed as PA 585 g/ha",52.86 % UNCK
same,PESINC (Pest Incidence/Number of Insects) % UNCK,"Chilo suppressalis; Trial 2, 41 DAB, water volume 300 L/ha, rate in treatment name, listed as PA 975 g/ha",52.86 % UNCK
same,PESINC (Pest Incidence/Number of Insects) % UNCK,"Chilo suppressalis; Trial 2, 41 DAB, water volume 300 L/ha, rate in treatment name, listed as PA 1300 g/ha",57.86 % UNCK
same,PESINC (Pest Incidence/Number of Insects) % UNCK,"Chilo suppressalis; Trial 2, 41 DAB, water volume 300 L/ha, rate in treatment name, listed as PA 2600 g/ha",67.86 % UNCK
same,"% Damage, % UNCK",Diabrotica speciosa,27.81a % UNCK
same,"% Damage, % UNCK",Diabrotica speciosa; listed as PA 812.5 g/ha,82.01b % UNCK
same,"% Damage, % UNCK",Diabrotica speciosa; listed as PA 975 g/ha,86.96b % UNCK
same,"% Damage, % UNCK",Diabrotica speciosa; listed as PA 1137.5 g/ha,88.90b % UNCK
